Data on 32 compounds can be found in patent US20190151312A1, “HEPARAN SULFATE BIOSYNTHESIS INHIBITORS FOR THE TREATMENT OF DISEASES” (BioMarin Pharmaceutical Inc., priority 2014, published 2019).

Structures are written as SMILES.

In one test the test system is GM01896 cells (MPS II dermal fibroblasts). In words: Assay 1: MPS cellular assay, MPS II (heparan sulfate disaccharide biomarkers by LC-MS). To be noted: Assay 1 for MPS II, heparan sulfate disaccharide biomarkers (I2a4, I2a6, I2S0 and/or I2S6), read-out: IC50 Range. It is filed as cell-based, human. Put shortly:
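MPS II patient dermal fibroblasts (GM01896) treated with compound at ≤30 μM for 4 to 21 days. Heparan sulfate GAGs isolated by anion exchange, digested with heparinases I-III, aniline-tagged against [13C6]aniline standards and quantified by LC-MS; IC50 from curve fitting. Viability monitored by alamar blue or ATP.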
Turning to `CN(C)CCn1cnc2cc(-c3cc(Nc4ccc(Cl)cc4)nc(N4CCOCC4)n3)ccc21` [[2-(5-{6-[(4-chlorophenyl)amino]-2-morpholin-4-ylpyrimidin-4-yl}benzimidazolyl)ethyl]dimethylamine], the IC50 was 1000 to 5000 nM.
For the compound `Cc1nc2ccc(-c3cc(Nc4ccc(Cl)cc4)nc(N4CCOCC4)n3)cc2n1CCN(C)C` [[2-(6-{6-[(4-chlorophenyl)amino]-2-morpholin-4-ylpyrimidin-4-yl}-2-methylbenzimidazolyl)ethyl]dimethylamine], the concentration for half-maximal inhibition (IC50) lay within 1000 to 5000 nM.
Turning to `Cc1nn(CCN(C)C)c2cc(-c3cc(Nc4ccc(Cl)cc4)nc(N4CCOCC4)n3)ccc12` [[2-(6-{6-[(4-chlorophenyl)amino]-2-morpholin-4-ylpyrimidin-4-yl}-3-methyl(1H-indazoly))ethyl]dimethylamine], the 50% inhibitory concentration (IC50) lay in the range of 1000 to 5000 nM.
As for `CN(C)CCn1cnc2ccc(-c3cc(Nc4ccc(Cl)cc4)nc(N4CCOCC4)n3)cc21` [[2-(6-{6-[(4-chlorophenyl)amino]-2-morpholin-4-ylpyrimidin-4-yl}benzimidazolyl)ethyl]dimethylamine], the IC50 lay in the range of 500 to 1000 nM.
For the compound `CN(C)CCCn1cnc2cc(-c3cc(Nc4ccc(Cl)cc4)nc(N4CCOCC4)n3)ccc21` [[3-(5-{6-[(4-chlorophenyl)amino]-2-morpholin-4-ylpyrimidin-4-yl}benzimidazolyl)propyl]dimethylamine], the IC50 lay in the range of 500 to 1000 nM.
Still for that read-out and setting: the result for `Cc1nc2ccc(-c3cc(Nc4ccc(Cl)cc4)nc(N4CCOCC4)n3)cc2n1CCCN(C)C` [[3-(6-{6-[(4-chlorophenyl)amino]-2-morpholin-4-ylpyrimidin-4-yl}-2-methylbenzimidazolyl)propyl]dimethylamine] reads 500 to 1000 nM.
On the same count and under the same terms, the result for `CN(C)CCCn1cnc2ccc(-c3cc(Nc4ccc(Cl)cc4)nc(N4CCOCC4)n3)cc21` [[3-(6-{6-[(4-chlorophenyl)amino]-2-morpholin-4-ylpyrimidin-4-yl}benzimidazolyl)propyl]dimethylamine] reads 500 to 1000 nM.

The test is the same for the next values; noted with them: Homo sapiens, Fibroblast, Assay 1 for MPS II, heparan sulfate disaccharide biomarkers (I2a4, I2a6, I2S0 and/or I2S6), read-out: IC50 Range.
As for `CNC(=O)c1ccc(Nc2cc(-c3ccc4c(c3)ncn4CCCN3CCOCC3)nc(N3CCOCC3)n2)cc1` [N-methyl[4-({2-morpholin-4-yl-6-[1-(3-morpholin-4-ylpropyl)benzimidazol-5-yl]pyrimidin-4-yl}amino)phenyl]carboxamide], the IC50 was in the range of 1000 to 5000 nM.
For the compound `CNC(=O)c1ccc(Nc2cc(-c3ccc4ncn(CCCN5CCOCC5)c4c3)nc(N3CCOCC3)n2)cc1` [N-methyl[4-({2-morpholin-4-yl-6-[1-(3-morpholin-4-ylpropyl)benzimidazol-6-yl]pyrimidin-4-yl}amino)phenyl]carboxamide], the IC50 lay within 1000 to 5000 nM.
Consider `CNC(=O)c1ccc(Nc2cc(-c3ccc4cnn(CCCN5CCCC5)c4c3)nc(N3CCOCC3)n2)cc1` [N-methyl[4-({2-morpholin-4-yl-6-[1-(3-pyrrolidinylpropyl)(1H-indazol-6-yl)]pyrimidin-4-yl}amino)phenyl]carboxamide], for which the IC50 was less than 500 nM.
In the case of `CNC(=O)c1ccc(Nc2cc(-c3ccc4c(c3)ncn4CCCN3CCCC3)nc(N3CCOCC3)n2)cc1` [N-methyl[4-({2-morpholin-4-yl-6-[1-(3-pyrrolidinylpropyl)benzimidazol-5-yl]pyrimidin-4-yl}amino)phenyl]carboxamide], the IC50 is 500 to 1000 nM.
For the compound `CN(C)CCn1ncc2ccc(-c3cc(Nc4ccc(Cl)cc4)nc(N4CCOCC4)n3)cc21` [[2-(6-{6-[(4-chlorophenyl)amino]-2-morpholin-4-ylpyrimidin-4-yl}(1H-indazolyl))ethyl]dimethylamine], the IC50 fell in the range of 500 to 1000 nM.
On the same count and under the same terms, under `CN(C)CCn1cc2ccc(-c3cc(Nc4ccc(Cl)cc4)nc(N4CCOCC4)n3)cc2n1` [[2-(6-{6-[(4-chlorophenyl)amino]-2-morpholin-4-ylpyrimidin-4-yl}(2H-indazol-2-yl))ethyl]dimethylamine] stands 500 to 1000 nM; under `CN(C)CCc1nn(C)c2cc(-c3cc(Nc4ccc(Cl)cc4)nc(N4CCOCC4)n3)ccc12` [[2-(6-{6-[(4-chlorophenyl)amino]-2-morpholin-4-ylpyrimidin-4-yl}-1-methyl(1H-indazol-3-yl))ethyl]dimethylamine], 500 to 1000 nM; under `Cc1c2ccc(-c3cc(Nc4ccc(Cl)cc4)nc(N4CCOCC4)n3)cc2nn1CCN(C)C` [[2-(6-{6-[(4-chlorophenyl)amino]-2-morpholin-4-ylpyrimidin-4-yl}-3-methyl(2H-indazol-2-yl))ethyl]dimethylamine], 1000 to 5000 nM.
`CN(C)CCc1nc2cc(Cc3cc(Nc4ccc(Cl)cc4)nc(N4CCOCC4)n3)ccc2[nH]1` [[2-(6-{6-[(4-chlorophenyl)amino]-2-morpholin-4-ylpyrimidin-4-yl}methylbenzimidazol-2-yl)ethyl]dimethylamine]: the IC50 is less than 500 nM.
On to `CN(C)CCCn1ncc2ccc(-c3cc(Nc4ccc(Cl)cc4)nc(N4CCOCC4)n3)cc21` [[3-(6-{6-[(4-chlorophenyl)amino]-2-morpholin-4-ylpyrimidin-4-yl}(1H-indazolyl))propyl]dimethylamine], for which the IC50 is 1000 to 5000 nM.
Take `Cc1nn(CCCN(C)C)c2cc(-c3cc(Nc4ccc(Cl)cc4)nc(N4CCOCC4)n3)ccc12` [[3-(6-{6-[(4-chlorophenyl)amino]-2-morpholin-4-ylpyrimidin-4-yl}-3-methyl(1H-indazolyl))propyl]dimethylamine]: the IC50 lay within 500 to 1000 nM.
Still for that read-out and setting: under `Cn1cc(-c2ccc(Nc3cc(-c4ccc5cnn(C)c5c4)nc(N4CCOCC4)n3)cc2)nn1` [[4-(1-methyl(1,2,3-triazol-4-yl))phenyl][6-(1-methyl(1H-indazol-6-yl))-2-morpholin-4-ylpyrimidin-4-yl]amine] stands 1000 to 5000 nM; under `Cn1ccnc1-c1ccc(Nc2cc(-c3ccc4c(CCN5CCOCC5)nn(C)c4c3)nc(N3CCOCC3)n2)cc1` [[4-(1-methylimidazol-2-yl)phenyl]{6-[1-methyl-3-(2-morpholin-4-ylethyl)(1H-indazol-6-yl)]-2-morpholin-4-ylpyrimidin-4-yl}amine], 500 to 1000 nM; under `Cc1nncn1-c1ccc(Nc2cc(-c3ccc4cnn(C)c4c3)nc(N3CCOCC3)n2)cc1` [[4-(3-methyl(1,2,4-triazol-4-yl))phenyl][6-(1-methyl(1H-indazol-6-yl))-2-morpholin-4-ylpyrimidin-4-yl]amine], 500 to 1000 nM.
On to `Cc1nn(-c2ccc(Nc3cc(-c4ccc5c(C)nn(C)c5c4)nc(N4CCOCC4)n3)cc2)nc1C` [[4-(4,5-dimethyl(1,2,3-triazol-2-yl))phenyl][6-(1,3-dimethyl(1H-indazol-6-yl))-2-morpholin-4-ylpyrimidin-4-yl]amine], for which the IC50 was in the range of 1000 to 5000 nM.
In the case of `Cn1ncc2ccc(-c3cc(Nc4ccc(-c5[nH]ncc5F)cc4)nc(N4CCOCC4)n3)cc21` [[4-(4-fluoropyrazol-5-yl)phenyl][6-(1-methyl(1H-indazol-6-yl))-2-morpholin-4-ylpyrimidin-4-yl]amine], the IC50 is 1000 to 5000 nM.
As to `Cc1cnn(-c2ccc(Nc3cc(-c4ccc5cnn(C)c5c4)nc(N4CCOCC4)n3)cc2)n1` [[4-(4-methyl(1,2,3-triazol-2-yl))phenyl][6-(1-methyl(1H-indazol-6-yl))-2-morpholin-4-ylpyrimidin-4-yl]amine], the concentration for half-maximal inhibition (IC50) was less than 500 nM.
Regarding `Cc1cnn(-c2ccc(Nc3cc(-c4ccc5c(CCN6CCOCC6)nn(C)c5c4)nc(N4CCOCC4)n3)cc2)n1` [[4-(4-methyl(1,2,3-triazol-2-yl))phenyl]{6-[1-methyl-3-(2-morpholin-4-ylethyl)(1H-indazol-6-yl)]-2-morpholin-4-ylpyrimidin-4-yl}amine], the half-maximal inhibitory concentration (IC50) is less than 500 nM.
Consider `Cn1cnnc1-c1ccc(Nc2cc(-c3ccc4cnn(C)c4c3)nc(N3CCOCC3)n2)cc1` [[4-(4-methyl(1,2,4-triazol-3-yl))phenyl][6-(1-methyl(1H-indazol-6-yl))-2-morpholin-4-ylpyrimidin-4-yl]amine], for which the IC50 is 1000 to 5000 nM.
As to `Cn1ncc2ccc(-c3cc(Nc4ccc(-c5nnc(C6CC6)[nH]5)cc4)nc(N4CCOCC4)n3)cc21` [[4-(5-cyclopropyl(4H-1,2,4-triazol-3-yl))phenyl][6-(1-methyl(1H-indazol-6-yl))-2-morpholin-4-ylpyrimidin-4-yl]amine], the IC50 is less than 500 nM.
Take `Cn1nc(CCN2CCOCC2)c2ccc(-c3cc(Nc4ccc(-c5nnc(C6CC6)[nH]5)cc4)nc(N4CCOCC4)n3)cc21` [[4-(5-cyclopropyl(4H-1,2,4-triazol-3-yl))phenyl]{6-[1-methyl-3-(2-morpholin-4-ylethyl)(1H-indazol-6-yl)]-2-morpholin-4-ylpyrimidin-4-yl}amine]: the 50% inhibitory concentration (IC50) is less than 500 nM.
Still for that read-out and setting: under `Cc1nc(-c2ccc(Nc3cc(-c4ccc5cnn(C)c5c4)nc(N4CCOCC4)n3)cc2)no1` [[4-(5-methyl(1,2,4-oxadiazol-3-yl))phenyl][6-(1-methyl(1H-indazol-6-yl))-2-morpholin-4-ylpyrimidin-4-yl]amine] stands 1000 to 5000 nM.
`Cc1nnc(-c2ccc(Nc3cc(-c4cnc5cnn(C)c5c4)nc(N4CCOCC4)n3)cc2)[nH]1` [[4-(5-methyl(4H-1,2,4-triazol-3-yl))phenyl][6-(1-methylpyrazolo[4,5-b]pyridin-6-yl)-2-morpholin-4-ylpyrimidin-4-yl]amine]: the IC50 was less than 500 nM.
`Cc1nnc(-c2ccc(Nc3cc(-c4ccc5cnn(CCN6CCOCC6)c5c4)nc(N4CCOCC4)n3)cc2)[nH]1` [[4-(5-methyl(4H-1,2,4-triazol-3-yl))phenyl]{2-morpholin-4-yl-6-[1-(2-morpholin-4-ylethyl)(1H-indazol-6-yl)]pyrimidin-4-yl}amine]: the IC50 was less than 500 nM.
For `Cc1nnc(-c2ccc(Nc3cc(-c4ccc5c(CCN6CCOCC6)nn(C)c5c4)nc(N4CCOCC4)n3)cc2)[nH]1` [[4-(5-methyl(4H-1,2,4-triazol-3-yl))phenyl]{6-[1-methyl-3-(2-morpholin-4-ylethyl)(1H-indazol-6-yl)]-2-morpholin-4-ylpyrimidin-4-yl}amine], the IC50 is less than 500 nM.
